Measured values as given in patent publication US11918550B2, “Sensitization of cancer cells to differentiation therapy with mitochondrial uncoupler niclosamide ethanolamine” (The Board of Trustees of the Leland Stanford Junior …, priority 2020, dated 2024).

What was measured:
Format in all cases: cell-based
SK-N-BE(2) cells [1] = test: Global DNA methylation analysis by LC-MS (5mdc/dc); conditions: 1 μM, 5 h, 24 h and 48 h vs DMSO
SK-N-BE(2) cells [2] = test: Western blot of RA signaling proteins; conditions: 1 μM 5-AZA with 1 μM RA, 24 hrs
Procedure: (§1) Protein extraction and immunoblot. Cells were washed with ice-cold PBS buffer (Invitrogen, 20012050) and lysed with harvest buffer (10 mM Hepes pH 7.9, 50 mM NaCl, 500 mM sucrose, 0.1 mM EDTA and 0.5% Trition X-100) supplemented with 1% Halt inhibitors (Thermo Scientific™, 78443) for 10 minutes. Cell lysate was centrifuged at 3000 rpm for 3 min at 4° C. The supernatant containing cytosolic proteins was transferred to a different tube. The pellet containing nuclear proteins was dissolved with nuclear lysis buffer (10 mM Hepes pH 7.9, 0.5M NaCl, 0.1 mM EDTA, 0.1 mM EGTA and 0.1% NP40) supplemented with 1% Halt inhibitors (Thermo Scientific™, 78443) for 5 minutes at 4° C. Then the solution was sonicated at 4° C. for 6 cycles (1 cycle=30 s sonication and 30 s cooldown with “High” energy intensity) using a Bioruptor® Plus sonication (Diagenode, UCD-300). After sonication, the solution was centrifuged at 15,000 rpm for 10 minutes. The supernatant was kept as nuclear extraction. Protein concentration was determined by BCA assay (Thermo Scientific, 23227). 5 μg nuclear proteins or 7.5 μg cytosolic proteins were boiled in loading buffer with reducing reagents (Invitrogen, NuPAGE™ LDS Sample Buffer (4X), NP0007), then separated with SDS-PAGE (Nupage™ 4-12% Bis-Tris Protein Gels, 1.0 mm, Invitrogen™, NP0322BOX). Protein was transferred onto a nitrocellulose membrane (Thermo Scientific™, 88018). After blocking in 5% non-fat milk for 30 minutes at room temperature (RT), the primary antibody was added for incubation overnight at 4° C. After washing with TBST (CST, #9997, 1:10 diluted by deionized water) for 3 times, HRP-conjugated secondary antibodies were applied. Signals were detected with an ECL kit (Thermo Scientific™, 34577) by using BioRad Universal Hood II.

[3] = test system: RA-resistant neuroblastoma cells; test: Morphological differentiation with 5-AZA and 13-cis-RA; conditions: 5-AZA with 1 μM 13-cis-RA, 3 days and 6 days
CHP134 = test: Cell proliferation and morphology change under RA treatment; conditions: CHP134, 13-cis-RA
Procedure: (§2) Cell proliferation and clonogenic assay. 2×10^4 cells were seeded in 12 well-plate and allowed to attached overnight. Then the cells were treated with various conditions as indicated for 48 h or 96 h (n=3). After treatment, cells were counted using hemocytometer.

NB16 = test: as above; conditions: NB16, 13-cis-RA
Procedure: as §2

SK-N-BE(2) = test: as above; conditions: 13-cis-RA
Procedure: as §2

SMS-KCNR = test: as above; conditions: 13-cis-RA
Procedure: as §2

NB16 cells = test: Expression of RA receptors under RA treatment; conditions: NB16, RA 24 h
Procedure: as §1

SK-N-BE2 = test: Expression of RA receptors under RA treatment; conditions: SK-N-BE2, RA 24 h
Procedure: as §1

Row | SMILES | global DNA methylation (ratio of 5-methyl-deoxycytidine to deoxycytidine) (SK-N-BE(2) cells [1]) | RA-induced expression of CRABP2 (SK-N-BE(2) cells [2]) | RA-induced expression of RARγ (SK-N-BE(2) cells [2]) | differentiation with RA (morphological changes) [3] | proliferation (CHP134; 48 hrs and 96 hrs) | neuron differentiation morphology (CHP134; 96 hrs) | proliferation arrest (NB16; 48 hrs and 96 hrs) | differentiation morphology (NB16; 96 hrs) | proliferation arrest (SK-N-BE(2); 48 hrs and 96 hrs) | differentiation morphology (SK-N-BE(2); 96 hrs) | proliferation (SMS-KCNR; 48 hrs and 96 hrs) | neuron differentiation morphology (SMS-KCNR; 96 hrs) | induction of RARα upon RA treatment (vs RA-sensitive cell lines) (NB16 cells) | induction of RARγ upon RA treatment (vs RA-sensitive cell lines) (NB16 cells) | induction of RARα upon RA treatment (vs RA-sensitive cell lines) (SK-N-BE2) | induction of RARγ upon RA treatment (vs RA-sensitive cell lines) (SK-N-BE2)
1 | Nc1ncn([C@@H]2O[C@H](CO)[C@@H](O)[C@H]2O)c(=O)n1 [5-Aza, 5-Azacytidine] | reduced | enhanced | enhanced | induced differentiation |  |  |  |  |  |  |  |  |  |  |  | 
2 | CC1=C(/C=C/C(C)=C/C=C/C(C)=C\C(=O)O)C(C)(C)CCC1 [RA, 13-cis-retinoic acid] |  |  |  |  | proliferation arrest | significantly induced | did not show | did not show | did not show | did not show | proliferation arrest | significantly induced | less induction | less induction | less induction | less induction
